Reference: US11666071B2, “Compound salt of N,N-dimethylglycine and an organic acid and composition and use thereof” (GUANGZHOU INSIGHTER BIOTECHNOLOGY CO., LTD., priority 2017, dated 2023)
Counter-ions that a name gives are not always drawn. Marks after values point to notes of the source that are not given here.

Experiments:
[1] = High-humidity stability test (hygroscopic weight gain); format: physicochemical; settings: 25° C.; for hygroscopic weight gain, Day 5 (%) / hygroscopic weight gain, Day 10 (%): RH 95%±1%; for hygroscopicity / status of sample: RH 95%; for hygroscopic weight gain, Day 5 (%) / hygroscopicity / status of sample: day 5
[2] = system: Duroc×Landrace×Large White weaned pigs; assay: Copper salt of N,N-dimethylglycine and fumaric acid on weaned pigs; format: in vivo, pig
Method: The […] utensils were disinfected before the experiment. The pigs were kept in pens in the same […] under the same breeding conditions during the experiment. […] The test was carried out for 15 days. […] The experiment data were analyzed with SPSS18 software.

[3] = system: Duroc×Landrace×Large White weaned pigs; assay: Zinc salt of N,N-dimethylglycine and fumaric acid in weaned-pig feed; format: in vivo; settings: 15 days
Description: The pigsty and utensils were disinfected before the experiment. The pigs were kept in pens in the same pigsty under the same breeding conditions during the experiment. […] The groups included a control group, a comparative example and experiment groups 1-6. The control group was provided with only the basic diets, the comparative example was provided with 2500 ppm of zinc oxide, and the experiment groups 1-6 were respectively provided with the basic diets together with the hybrid pellet feed additive product 7 provided by the present invention in different concentrations, as shown in Table 9. […] The experiment was carried out for 15 days. […] The experiment data were analyzed with SPSS18 software.

Compound	hygroscopic weight gain, Day 5 (%) [1] [%]	hygroscopic weight gain, Day 10 (%) [1] [%]	hygroscopicity / status of sample [1]	further results
Calcium salt of N,N-dimethylglycine and fumaric acid [Sample 8]	2.95 ± 0.22	3.25 ± 0.12	–	–
CN(C)CC(=O)[O-].[Na+] [Sample 2, Sodium N,N-dimethylglycinate, reference compound]	49.09 ± 1.14	52.44 ± 0.48	very high hygroscopicity	–
Copper salt of N,N-dimethylglycine and fumaric acid [Sample 14]	2.56 ± 0.11	2.81 ± 0.06	–	effect on the average daily weight gain of weaned pigs ([2]; 30-100 ppm, 15 days): no significant effect; effect on the feed intake of weaned pigs ([2]; 30-100 ppm, 15 days): no significant effect; reduction of feed conversion ratio compared with the control group ([2]; dose 100 ppm): 8.61%; dose at which feed conversion ratio is significantly reduced ([2]; weaned pigs, 15 days): 30-100 ppm
CN(C)CC(=O)O [Sample 6, Calcium salt of N,N-dimethylglycine and sulfuric acid]	61.72 ± 0.41	60.58 ± 0.21	water-like status	–
Calcium salt of N,N-dimethylglycine and p-methylbenzenesulfonic acid [Sample 10]	2.84 ± 0.23	3.01 ± 0.11	–	–
Zinc salt of N,N-dimethylglycine and fumaric acid [Sample 13]	2.26 ± 0.09	2.76 ± 0.23	–	effect on the feed intake of weaned pigs ([3]; 55-520 ppm): no significant effect; dose at which reduction of feed conversion ratio is significant and equivalent to high-dose zinc oxide ([3]; weaned pigs): higher than 390 ppm; dose that significantly increases average daily weight gain to the level of 2500 ppm zinc oxide ([3]; weaned pigs): about 260 ppm
[O]=[Zn] [Zinc oxide, reference compound]	–	–	–	FCR ([3]; dose 2500 ppm): 1.808 ± 0.018
Calcium N,N-dimethylglycinate [Sample 3, reference compound]	38.40 ± 0.22	41.83 ± 0.35	very high hygroscopicity	–
O.O.O.O.O.O=S(=O)([O-])[O-].[Cu+2] [Copper sulfate pentahydrate, reference compound]	–	–	–	ADFI ([2]; dose 250 ppm, 15 days): 94.67 ± 1.33 kg; ADG ([2]; dose 250 ppm, 15 days): 46.38 ± 1.01 kg; FCR ([2]; dose 250 ppm, 15 days): 2.042 ± 0.021^b
CN(C)CC(=O)O.Cl [Sample 1, N,N-dimethylglycine hydrochloride, reference compound]	79.86 ± 0.94	80.69 ± 0.59	very high hygroscopicity	–
Calcium salt of N,N-dimethylglycine and tetradecanoic acid [Sample 9]	2.11 ± 0.04	2.75 ± 0.32	–	–
CN(C)CC(=O)[O-].O=C([O-])c1ccccc1.[Cu+2] [Sample 11]	2.41 ± 0.07	2.81 ± 0.10	–	–
